Several values for one entry are separate records, joined by “and”; a condition that tells them apart may be missing. Identical values can stand only once.
System: human PBMCs
Assay: LPS-induced cytokine and chemokine levels in human PBMC supernatant (Luminex, ELISA)
Type: cell-based
Settings: for TNF-α [pg/mL], Mean / TNF-α [pg/mL], individual value / GM-CSF % reduction / GM-CSF [pg/mL], Mean / GM-CSF [pg/mL], individual value / IL-1β % reduction / IL-1β [pg/mL], Mean / IL-1β [pg/mL], individual value / IL-6 % reduction / IL-6 [pg/mL], Mean / IL-6 [pg/mL], individual value / IL-8 % reduction / IL-8 [pg/mL], Mean / IL-8 [pg/mL], individual value / TNF-α % reduction: LPS-stimulated human PBMC supernatant

## CC[C@H]1OC(=O)[C@H](C)[C@@H](O[C@H]2C[C@@](C)(OC)[C@@H](O)[C@H](C)O2)[C@H](C)[C@@H](O[C@@H]2O[C@H](C)C[C@H](N(C)C)[C@H]2O)[C@](C)(O)C[C@@H](C)CN(C)[C@H](C)[C@@H](O)[C@]1(C)O [Azithromycin]
0.03 µM
  TNF-α [pg/mL], Mean: 11102 pg/mL
  TNF-α [pg/mL], individual value: 10517 pg/mL and 11687 pg/mL
0.1 µM
  GM-CSF % reduction: 8%
  GM-CSF [pg/mL], Mean: 606 pg/mL
  GM-CSF [pg/mL], individual value: 616 pg/mL and 597 pg/mL
  IL-1β % reduction: 7%
  IL-1β [pg/mL], Mean: 11909 pg/mL
  IL-1β [pg/mL], individual value: 12184 pg/mL and 11633 pg/mL
  IL-6 % reduction: 10%
  IL-6 [pg/mL], Mean: 31536 pg/mL
  IL-6 [pg/mL], individual value: 30929 pg/mL and 32144 pg/mL
  IL-8 % reduction: -3.72%
  IL-8 [pg/mL], Mean: 3056 pg/mL
  IL-8 [pg/mL], individual value: 3040 pg/mL and 3071 pg/mL
  TNF-α % reduction: 8%
  TNF-α [pg/mL], Mean: 8220 pg/mL
  TNF-α [pg/mL], individual value: 7335 pg/mL and 9106 pg/mL
0.3 µM
  GM-CSF % reduction: 3.39%
  GM-CSF [pg/mL], Mean: 635 pg/mL
  GM-CSF [pg/mL], individual value: 650 pg/mL and 620 pg/mL
  IL-1β % reduction: 5%
  IL-1β [pg/mL], Mean: 12146 pg/mL
  IL-1β [pg/mL], individual value: 12820 pg/mL and 11473 pg/mL
  IL-6 % reduction: 8%
  IL-6 [pg/mL], Mean: 32119 pg/mL
  IL-6 [pg/mL], individual value: 32538 pg/mL and 31700 pg/mL
  IL-8 % reduction: -0.427%
  IL-8 [pg/mL], Mean: 3002 pg/mL
  IL-8 [pg/mL], individual value: 2940 pg/mL and 3064 pg/mL
  TNF-α % reduction: 8%
  TNF-α [pg/mL], Mean: 8210 pg/mL
  TNF-α [pg/mL], individual value: 7975 pg/mL and 8445 pg/mL
1 µM
  GM-CSF % reduction: 6.38%
  GM-CSF [pg/mL], Mean: 616 pg/mL
  GM-CSF [pg/mL], individual value: 634 pg/mL and 597 pg/mL
  IL-1β % reduction: 4%
  IL-1β [pg/mL], Mean: 12252 pg/mL
  IL-1β [pg/mL], individual value: 12213 pg/mL and 12291 pg/mL
  IL-6 % reduction: -4.52%
  IL-6 [pg/mL], Mean: 36486 pg/mL
  IL-6 [pg/mL], individual value: 36508 pg/mL and 36463 pg/mL
  IL-8 % reduction: 0.166%
  IL-8 [pg/mL], Mean: 2992 pg/mL
  IL-8 [pg/mL], individual value: 2945 pg/mL and 3040 pg/mL
  TNF-α % reduction: -33%
  TNF-α [pg/mL], Mean: 11913 pg/mL
  TNF-α [pg/mL], individual value: 11577 pg/mL and 12250 pg/mL
3 µM
  GM-CSF % reduction: -8.5%
  GM-CSF [pg/mL], Mean: 713 pg/mL
  GM-CSF [pg/mL], individual value: 735 pg/mL and 692 pg/mL
  IL-1β % reduction: -0.234%
  IL-1β [pg/mL], Mean: 12815 pg/mL
  IL-1β [pg/mL], individual value: 12810 pg/mL and 12820 pg/mL
  IL-6 % reduction: 4%
  IL-6 [pg/mL], Mean: 33458 pg/mL
  IL-6 [pg/mL], individual value: 33827 pg/mL and 33090 pg/mL
  IL-8 % reduction: -3.25%
  IL-8 [pg/mL], Mean: 3048 pg/mL
  IL-8 [pg/mL], individual value: 3040 pg/mL and 3056 pg/mL
  TNF-α % reduction: -13%
  TNF-α [pg/mL], Mean: 10076 pg/mL
  TNF-α [pg/mL], individual value: 10741 pg/mL and 9410 pg/mL
10 µM
  GM-CSF % reduction: -18%
  GM-CSF [pg/mL], Mean: 778 pg/mL
  GM-CSF [pg/mL], individual value: 790 pg/mL and 767 pg/mL
  IL-1β % reduction: 6%
  IL-1β [pg/mL], Mean: 12046 pg/mL
  IL-1β [pg/mL], individual value: 12362 pg/mL and 11731 pg/mL
  IL-6 % reduction: 4.69%
  IL-6 [pg/mL], Mean: 33270 pg/mL
  IL-6 [pg/mL], individual value: 35180 pg/mL and 31360 pg/mL
  IL-8 % reduction: 7.45%
  IL-8 [pg/mL], Mean: 2874 pg/mL
  IL-8 [pg/mL], individual value: 2884 pg/mL and 2864 pg/mL
  TNF-α % reduction: -22%
  TNF-α [pg/mL], Mean: 10907 pg/mL
  TNF-α [pg/mL], individual value: 11897 pg/mL and 9917 pg/mL
30 µM
  GM-CSF % reduction: -64%
  GM-CSF [pg/mL], Mean: 1076 pg/mL
  GM-CSF [pg/mL], individual value: 1120 pg/mL and 1032 pg/mL
  IL-1β % reduction: 22%
  IL-1β [pg/mL], Mean: 10027 pg/mL
  IL-1β [pg/mL], individual value: 10517 pg/mL and 9538 pg/mL
  IL-6 % reduction: 2.66%
  IL-6 [pg/mL], Mean: 33980 pg/mL
  IL-6 [pg/mL], individual value: 33792 pg/mL and 34168 pg/mL
  IL-8 % reduction: 5%
  IL-8 [pg/mL], Mean: 2917 pg/mL
  IL-8 [pg/mL], individual value: 2925 pg/mL and 2908 pg/mL
  TNF-α % reduction: -21%
  TNF-α [pg/mL], Mean: 10839 pg/mL
  TNF-α [pg/mL], individual value: 10668 pg/mL and 11009 pg/mL
100 µM
  GM-CSF % reduction: -161%
  GM-CSF [pg/mL], Mean: 1715 pg/mL
  GM-CSF [pg/mL], individual value: 1713 pg/mL and 1717 pg/mL
  IL-1β % reduction: 51%
  IL-1β [pg/mL], Mean: 6242 pg/mL
  IL-1β [pg/mL], individual value: 5956 pg/mL and 6528 pg/mL
  IL-6 % reduction: 23%
  IL-6 [pg/mL], Mean: 27053 pg/mL
  IL-6 [pg/mL], individual value: 26301 pg/mL and 27804 pg/mL
  IL-8 [pg/mL], Mean: 2975 pg/mL
  IL-8 [pg/mL], individual value: 2977 pg/mL and 2972 pg/mL
  TNF-α % reduction: 17%
  TNF-α [pg/mL], Mean: 7409 pg/mL
  TNF-α [pg/mL], individual value: 6229 pg/mL and 8589 pg/mL
Human PBMCs, concentrations tested (100 μM not shown)
  levels of the measured LPS-induced cytokines, chemokines, or MMP-9 in supernatants: little to no reduction
